Measurements reported in article PMC5218480 (PLoS ONE, 2017).

Test system: MV-4-11 cells
Assay: Gene expression microarray analysis (Affymetrix PrimeView) and GSEA
Assay type: cell-based, human
Parameters: RFU PODN (11730768_x_at) / Fold change /veh PODN (11730768_x_at) / RFU LINC00158 (11744669_a_at) / Fold change /veh LINC00158 (11744669_a_at) / RFU DUSP10 (11751237_a_at) / Fold change /veh DUSP10 (11751237_a_at) / RFU ID3 (11757404_x_at) / Fold change /veh ID3 (11757404_x_at) / RFU PLEKHG5 (11737974_s_at) / Fold change /veh PLEKHG5 (11737974_s_at) / RFU LRRC4B (11730491_at) / Fold change /veh LRRC4B (11730491_at) / RFU GIMAP4 (11747438_a_at) / Fold change /veh GIMAP4 (11747438_a_at) / RFU KRT8 (11758183_x_at) / Fold change /veh KRT8 (11758183_x_at) / RFU CNN1 (11734310_a_at) / Fold change /veh CNN1 (11734310_a_at) / RFU VPS37D (11726825_at) / Fold change /veh VPS37D (11726825_at) / RFU C10orf10 (11716522_x_at) / Fold change /veh C10orf10 (11716522_x_at) / RFU KIR2DL2 /// KIR2DL4 /// KIR2DL5A /// KIR2DL5B /// KIR2DS1 /// KIR2DS2 /// KIR2DS3 /// KIR2DS4 /// KIR3DL3 /// KIR3DL3 /// KIR3DS1 (11738374_at) / Fold change /veh KIR2DL2 /// KIR2DL4 /// KIR2DL5A /// KIR2DL5B /// KIR2DS1 /// KIR2DS2 /// KIR2DS3 /// KIR2DS4 /// KIR3DL3 /// KIR3DL3 /// KIR3DS1 (11738374_at) / RFU C1QL1 (11718748_at) / Fold change /veh C1QL1 (11718748_at) / RFU TMPRSS4 (11747572_a_at) / Fold change /veh TMPRSS4 (11747572_a_at) / RFU HAMP (11756126_x_at) / Fold change /veh HAMP (11756126_x_at) / RFU RNFT2 (11725882_a_at) / Fold change /veh RNFT2 (11725882_a_at) / RFU NR4A2 (11747474_a_at) / Fold change /veh NR4A2 (11747474_a_at) / RFU ABCC12 (11746883_a_at) / Fold change /veh ABCC12 (11746883_a_at) / RFU TMEM136 (11760407_x_at) / Fold change /veh TMEM136 (11760407_x_at) / RFU CLDN22 /// WWC2 (11732394_at) / Fold change /veh CLDN22 /// WWC2 (11732394_at) / RFU HLA-DPB1 (11760878_x_at) / Fold change /veh HLA-DPB1 (11760878_x_at) / RFU SPINT1 (11716480_a_at) / Fold change /veh SPINT1 (11716480_a_at) / RFU GAP43 (11754022_s_at) / Fold change /veh GAP43 (11754022_s_at) / RFU A4GNT (11735810_at) / Fold change /veh A4GNT (11735810_at) / RFU PRB3 (11715151_x_at) / Fold change /veh PRB3 (11715151_x_at) / RFU TUBB4B (11761932_at) / Fold change /veh TUBB4B (11761932_at) / RFU CAPN14 (11732068_a_at) / Fold change /veh CAPN14 (11732068_a_at) / RFU TMCC2 (11721928_a_at) / Fold change /veh TMCC2 (11721928_a_at) / RFU IRGQ (11745062_a_at) / Fold change /veh IRGQ (11745062_a_at) / RFU FAM174B (11720279_a_at) / Fold change /veh FAM174B (11720279_a_at) / RFU TMPRSS4 (11748680_a_at) / Fold change /veh TMPRSS4 (11748680_a_at) / RFU FAM212B (11763350_a_at) / Fold change /veh FAM212B (11763350_a_at) / RFU PLEKHG5 (11743358_a_at) / Fold change /veh PLEKHG5 (11743358_a_at) / RFU ZSCAN30 (11745921_a_at) / Fold change /veh ZSCAN30 (11745921_a_at) / RFU CMKLR1 (11741424_a_at) / Fold change /veh CMKLR1 (11741424_a_at) / RFU LOC101060620 /// MAPK8IP1 (11723275_at) / Fold change /veh LOC101060620 /// MAPK8IP1 (11723275_at) / RFU SPTSSB (11747773_x_at) / Fold change /veh SPTSSB (11747773_x_at) / RFU PRSS12 (11739890_at) / Fold change /veh PRSS12 (11739890_at) / RFU BIN1 (11741810_x_at) / Fold change /veh BIN1 (11741810_x_at) / RFU WNT11 (11732464_a_at) / Fold change /veh WNT11 (11732464_a_at) / RFU C10orf10 (11716521_a_at) / Fold change /veh C10orf10 (11716521_a_at) / RFU C5orf56 (11738089_at) / Fold change /veh C5orf56 (11738089_at) / RFU CYB561 (11721691_x_at) / Fold change /veh CYB561 (11721691_x_at) / RFU ANKRD19P (11752326_a_at) / Fold change /veh ANKRD19P (11752326_a_at) / RFU OR2T12 /// OR2T33 /// OR2T8 (11738714_s_at) / Fold change /veh OR2T12 /// OR2T33 /// OR2T8 (11738714_s_at) / RFU VCAN (11748164_a_at) / Fold change /veh VCAN (11748164_a_at) / RFU JSRP1 (11732532_at) / Fold change /veh JSRP1 (11732532_at) / RFU KRTAP10-11 (11738290_x_at) / Fold change /veh KRTAP10-11 (11738290_x_at) / RFU MYO3A (11730013_a_at) / Fold change /veh MYO3A (11730013_a_at) / RFU EBF3 (11725865_a_at) / Fold change /veh EBF3 (11725865_a_at) / RFU CAMK2N1 (11719241_x_at) / Fold change /veh CAMK2N1 (11719241_x_at) / RFU C5orf56 (11738088_a_at) / Fold change /veh C5orf56 (11738088_a_at) / RFU OLFML3 (11715873_a_at) / Fold change /veh OLFML3 (11715873_a_at) / RFU LOC100653217 /// NTM (11731650_a_at) / Fold change /veh LOC100653217 /// NTM (11731650_a_at) / RFU MAPK11 (11762145_a_at) / Fold change /veh MAPK11 (11762145_a_at) / RFU FIZ1 (11724087_x_at) / Fold change /veh FIZ1 (11724087_x_at) / RFU OASL (11726364_x_at) / Fold change /veh OASL (11726364_x_at) / RFU SOX15 (11748057_x_at) / Fold change /veh SOX15 (11748057_x_at) / RFU CD79A (11719716_a_at) / Fold change /veh CD79A (11719716_a_at) / RFU HIST1H1D (11736915_at) / Fold change /veh HIST1H1D (11736915_at) / RFU CASKIN2 (11723855_a_at) / Fold change /veh CASKIN2 (11723855_a_at) / RFU LOC730098 (11760151_x_at) / Fold change /veh LOC730098 (11760151_x_at) / RFU OR4N2 (11742367_at) / Fold change /veh OR4N2 (11742367_at) / RFU PRRT2 (11749266_a_at) / Fold change /veh PRRT2 (11749266_a_at) / RFU SNX32 (11753110_a_at) / Fold change /veh SNX32 (11753110_a_at) / RFU CDHR5 (11726645_a_at) / Fold change /veh CDHR5 (11726645_a_at) / RFU RCAN1 (11760418_a_at) / Fold change /veh RCAN1 (11760418_a_at) / RFU FAM167A (11723789_a_at) / Fold change /veh FAM167A (11723789_a_at) / RFU FAM26E (11764081_at) / Fold change /veh FAM26E (11764081_at) / RFU ISYNA1 (11749810_s_at) / Fold change /veh ISYNA1 (11749810_s_at) / RFU ACY1 (11761880_at) / Fold change /veh ACY1 (11761880_at) / RFU 11764098_at / Fold change /veh 11764098_at / RFU SAMD14 (11745864_x_at) / Fold change /veh SAMD14 (11745864_x_at) / RFU NPB (11741838_a_at) / Fold change /veh NPB (11741838_a_at) / RFU TMPRSS6 (11731388_a_at) / Fold change /veh TMPRSS6 (11731388_a_at) / RFU KRTAP10-2 (11738614_at) / Fold change /veh KRTAP10-2 (11738614_at) / RFU ARHGAP8 /// PRR5-ARHGAP8 (11727945_x_at) / Fold change /veh ARHGAP8 /// PRR5-ARHGAP8 (11727945_x_at) / RFU KRTAP5-7 /// NADSYN1 (11734609_at) / Fold change /veh KRTAP5-7 /// NADSYN1 (11734609_at) / RFU RASL12 (11751679_a_at) / Fold change /veh RASL12 (11751679_a_at) / RFU CDKN2B (11736163_a_at) / Fold change /veh CDKN2B (11736163_a_at) / RFU PRF1 (11729649_at) / Fold change /veh PRF1 (11729649_at) / RFU, ZNF638 /// ZNF638-IT1 / Fold change vs veh, ZNF638 /// ZNF638-IT1 / RFU, PANK3 / Fold change vs veh, PANK3 / RFU, SH3YL1 / Fold change vs veh, SH3YL1 / RFU, ZEB2 / Fold change vs veh, ZEB2 / RFU, NRIP1 / Fold change vs veh, NRIP1 / RFU, PTTG1IP / Fold change vs veh, PTTG1IP / RFU, CAPN2 / Fold change vs veh, CAPN2 / RFU, MED14 / Fold change vs veh, MED14 / RFU, SNORA58 / Fold change vs veh, SNORA58 / RFU, C1orf63 / Fold change vs veh, C1orf63 / RFU, LRRFIP1 / Fold change vs veh, LRRFIP1 / RFU, NDUFAF7 / Fold change vs veh, NDUFAF7 / RFU, SLC12A2 / Fold change vs veh, SLC12A2 / RFU, IBTK / Fold change vs veh, IBTK / RFU, ESF1 / Fold change vs veh, ESF1 / Fold change vs veh, TMEM50B / RFU, TAOK1 / Fold change vs veh, TAOK1 / RFU, ACBD3 / Fold change vs veh, ACBD3 / RFU, TMA16 / Fold change vs veh, TMA16 / RFU, RWDD3 / Fold change vs veh, RWDD3 / RFU, BCAT1 / Fold change vs veh, BCAT1 / RFU, EDEM3 / Fold change vs veh, EDEM3 / RFU, TMEM33 / Fold change vs veh, TMEM33 / RFU, WDR75 / Fold change vs veh, WDR75 / RFU, AHCTF1 / Fold change vs veh, AHCTF1 / RFU, TFRC / Fold change vs veh, TFRC / RFU, ZDHHC17 / Fold change vs veh, ZDHHC17 / RFU, NOM1 / Fold change vs veh, NOM1 / RFU, ARL8B / Fold change vs veh, ARL8B / RFU, ZBTB11 / Fold change vs veh, ZBTB11 / RFU, TAMM41 / Fold change vs veh, TAMM41 / RFU, KIAA1704 /// LOC100996395 / Fold change vs veh, KIAA1704 /// LOC100996395 / RFU, ING1 / Fold change vs veh, ING1 / RFU, TRMT61B / Fold change vs veh, TRMT61B / RFU, FUBP3 / Fold change vs veh, FUBP3 / RFU, TP53 / Fold change vs veh, TP53 / RFU, TNKS2 / Fold change vs veh, TNKS2 / RFU, ZFP14 / Fold change vs veh, ZFP14 / RFU, ACTR2 / Fold change vs veh, ACTR2 / RFU, PPP3R1 / Fold change vs veh, PPP3R1 / RFU, PIK3R1 / Fold change vs veh, PIK3R1 / RFU, HNRNPA1 / Fold change vs veh, HNRNPA1 / RFU, RNF170 / Fold change vs veh, RNF170 / RFU, ZNF28 / Fold change vs veh, ZNF28 / RFU, RNGTT / Fold change vs veh, RNGTT / RFU, OGT / Fold change vs veh, OGT / RFU, BRD1 / Fold change vs veh, BRD1 / RFU, MARS / Fold change vs veh, MARS / RFU, ZNF655 / Fold change vs veh, ZNF655 / RFU, FAHD1 / Fold change vs veh, FAHD1 / RFU, BDP1 / Fold change vs veh, BDP1 / RFU, LRRCC1 / Fold change vs veh, LRRCC1 / RFU, ARID1A / Fold change vs veh, ARID1A / RFU, ZNF146 / Fold change vs veh, ZNF146 / RFU, ZNF330 / Fold change vs veh, ZNF330 / RFU, GPN3 / Fold change vs veh, GPN3 / RFU, C9orf123 / Fold change vs veh, C9orf123 / RFU, N4BP2L2 / Fold change vs veh, N4BP2L2 / RFU, ARFIP1 / Fold change vs veh, ARFIP1 / RFU, FAM179B / Fold change vs veh, FAM179B / RFU, BCL10 / Fold change vs veh, BCL10 / RFU, UHRF1BP1L / Fold change vs veh, UHRF1BP1L / RFU, BET1 / Fold change vs veh, BET1 / RFU, CNOT2 / Fold change vs veh, CNOT2 / RFU, ZNF268 / Fold change vs veh, ZNF268 / Fold change vs veh, ZNF507 / RFU, DGCR2 / Fold change vs veh, DGCR2 / RFU, WDSUB1 / Fold change vs veh, WDSUB1 / Fold change vs veh, HSP90B1 /// MIR3652 / RFU, ADSS / Fold change vs veh, ADSS / RFU, GK / Fold change vs veh, GK / RFU, ZNF148 / Fold change vs veh, ZNF148 / RFU, TAF9 / Fold change vs veh, TAF9 / RFU, SLC1A5 / Fold change vs veh, SLC1A5 / RFU, SLMO2 / Fold change vs veh, SLMO2 / RFU, ABCC4 / Fold change vs veh, ABCC4 / RFU, LOC101060439 /// RAP1B / Fold change vs veh, LOC101060439 /// RAP1B / RFU, RFX7 / Fold change vs veh, RFX7 / RFU, GTPBP10 / Fold change vs veh, GTPBP10 / RFU, CNEP1R1 / Fold change vs veh, CNEP1R1 / RFU, BIVM-ERCC5 /// ERCC5 / Fold change vs veh, BIVM-ERCC5 /// ERCC5 / RFU, ILF3 / Fold change vs veh, ILF3 / RFU 11762660_at / Fold change /veh 11762660_at / RFU VCAN (11757783_s_at) / Fold change /veh VCAN (11757783_s_at) / RFU DDX43 (11728927_at) / Fold change /veh DDX43 (11728927_at) / RFU KRT8 (11758188_x_at) / Fold change /veh KRT8 (11758188_x_at) / RFU NKD1 (11759106_at) / Fold change /veh NKD1 (11759106_at) / RFU SRD5A1 (11742802_a_at) / Fold change /veh SRD5A1 (11742802_a_at) / RFU TPSAB1 /// TPSB2 (11721975_s_at) / Fold change /veh TPSAB1 /// TPSB2 (11721975_s_at) / RFU GSTM3 (11746129_a_at) / Fold change /veh GSTM3 (11746129_a_at) / RFU IL23R (11737362_x_at) / Fold change /veh IL23R (11737362_x_at) / RFU TMEM51 (11727254_a_at) / Fold change /veh TMEM51 (11727254_a_at) / RFU PIWIL2 (11732686_x_at) / Fold change /veh PIWIL2 (11732686_x_at) / RFU ORM1 (11744905_x_at) / Fold change /veh ORM1 (11744905_x_at) / RFU CCDC152 (11743942_at) / Fold change /veh CCDC152 (11743942_at) / RFU ECM1 (11717891_a_at) / Fold change /veh ECM1 (11717891_a_at) / RFU IL23R (11748794_a_at) / Fold change /veh IL23R (11748794_a_at) / RFU TNFAIP8L3 (11732012_x_at) / Fold change /veh TNFAIP8L3 (11732012_x_at) / RFU MBOAT4 (11741988_at) / Fold change /veh MBOAT4 (11741988_at) / RFU 11764193_at / Fold change /veh 11764193_at / RFU TMEM53 (11763286_at) / Fold change /veh TMEM53 (11763286_at) / RFU MAGEB2 (11727129_at) / Fold change /veh MAGEB2 (11727129_at) / RFU TMEM200A (11744735_a_at) / Fold change /veh TMEM200A (11744735_a_at) / RFU CCDC152 (11751479_a_at) / Fold change /veh CCDC152 (11751479_a_at) / RFU FAM211A (11726209_a_at) / Fold change /veh FAM211A (11726209_a_at) / RFU RGS16 (11746705_a_at) / Fold change /veh RGS16 (11746705_a_at) / RFU VCAN (11755009_s_at) / Fold change /veh VCAN (11755009_s_at) / RFU RHOB (11743442_s_at) / Fold change /veh RHOB (11743442_s_at) / RFU RGS16 (11720943_a_at) / Fold change /veh RGS16 (11720943_a_at) / RFU RGS16 (11720944_at) / Fold change /veh RGS16 (11720944_at) / RFU, VPS4B / Fold change vs veh, VPS4B / RFU, CREB1 / Fold change vs veh, CREB1 / RFU, DNAJC13 / Fold change vs veh, DNAJC13 / RFU, GNAQ / Fold change vs veh, GNAQ / RFU, CDK5R1 / Fold change vs veh, CDK5R1 / RFU, ZRANB3 / Fold change vs veh, ZRANB3 / RFU, CUL4A / Fold change vs veh, CUL4A / RFU, CCNY / Fold change vs veh, CCNY / RFU, UFL1 / Fold change vs veh, UFL1 / RFU, COG3 / Fold change vs veh, COG3 / RFU, DIAPH2 / Fold change vs veh, DIAPH2 / RFU, SKA2 / Fold change vs veh, SKA2 / RFU, AFF3 / Fold change vs veh, AFF3 / RFU, LMF1 / Fold change vs veh, LMF1 / RFU, IPO11 / Fold change vs veh, IPO11 / RFU, DFFB / Fold change vs veh, DFFB / RFU, FOXP1 / Fold change vs veh, FOXP1 / RFU, CARD8 / Fold change vs veh, CARD8 / RFU, STRN3 / Fold change vs veh, STRN3 / RFU, ADK / Fold change vs veh, ADK / RFU, RASSF2 / Fold change vs veh, RASSF2 / RFU, WIPF1 / Fold change vs veh, WIPF1 / RFU, LARP1B / Fold change vs veh, LARP1B / RFU, RASA1 / Fold change vs veh, RASA1 / RFU, RB1 / Fold change vs veh, RB1 / RFU, PPFIA1 / Fold change vs veh, PPFIA1 / RFU, MAT2A / Fold change vs veh, MAT2A / RFU, CCT5 / Fold change vs veh, CCT5 / RFU, WDR92 / Fold change vs veh, WDR92 / RFU, CUX1 / Fold change vs veh, CUX1 / RFU, TTC7A / Fold change vs veh, TTC7A / RFU, TMEM135 / Fold change vs veh, TMEM135 / RFU, DEPTOR / Fold change vs veh, DEPTOR / RFU, CPM / Fold change vs veh, CPM / RFU, DNAJB6 / Fold change vs veh, DNAJB6 / RFU, CACNA2D3 / Fold change vs veh, CACNA2D3 / RFU, DTX4 / Fold change vs veh, DTX4 / RFU, TFCP2 / Fold change vs veh, TFCP2 / RFU, GMCL1 /// GMCL1P1 / Fold change vs veh, GMCL1 /// GMCL1P1 / RFU, AEBP2 / Fold change vs veh, AEBP2 / RFU, SNHG1 /// SNORD22 /// SNORD25 /// SNORD26 /// SNORD27 /// SNORD28 /// SNORD29 /// SNORD31 / Fold change vs veh, SNHG1 /// SNORD22 /// SNORD25 /// SNORD26 /// SNORD27 /// SNORD28 /// SNORD29 /// SNORD31 / Fold change (Aza/veh), C12orf56 (ProbeSet 11735607_a_at) / Fold change (ACY-1035/veh), C12orf56 (ProbeSet 11735607_a_at) / Fold change (Aza/veh), FGFR1OP (ProbeSet 11751329_s_at) / Fold change (ACY-1035/veh), FGFR1OP (ProbeSet 11751329_s_at) / Fold change (Aza/veh), VPS36 (ProbeSet 11739960_a_at) / Fold change (ACY-1035/veh), VPS36 (ProbeSet 11739960_a_at) / RFU SYPL1 (11715823_x_at) / Fold change /veh SYPL1 (11715823_x_at) / RFU IGFBP7 (11715501_s_at) / Fold change /veh IGFBP7 (11715501_s_at) / RFU REEP3 (11722064_at) / Fold change /veh REEP3 (11722064_at) / RFU IGLL1 (11728026_x_at) / Fold change /veh IGLL1 (11728026_x_at): dose or concentration left out as unconfirmed
Conditions: ProbeSet 11739106_a_at; LIST B

Nc1ccc(-c2cccs2)cc1NC(=O)c1ccc2c(c1)cc(C1CC1)n2CCN1CCOCC1 [ACY-1035]
RFU, TMEM33: 263.53 RFU
